Measured values published in patent US20080293782A1, “1,1,3-Trioxo-1,2,5-Thiadiazolidines and Their Use as Ptp-Ases Inhibitors” (priority 2005, published 2008).

What was measured:
human PTP-1B = target: T1, human PTP-1B (Homo sapiens, UniProt P18031); assay: inhibitory activity (IC50) to human PTP-1B; type: biochemical
T1 construct: recombinant human PTP-1B[1-298] or PTP-1B[1-322]
T1 sequence (P18031 1-298 limits assumed): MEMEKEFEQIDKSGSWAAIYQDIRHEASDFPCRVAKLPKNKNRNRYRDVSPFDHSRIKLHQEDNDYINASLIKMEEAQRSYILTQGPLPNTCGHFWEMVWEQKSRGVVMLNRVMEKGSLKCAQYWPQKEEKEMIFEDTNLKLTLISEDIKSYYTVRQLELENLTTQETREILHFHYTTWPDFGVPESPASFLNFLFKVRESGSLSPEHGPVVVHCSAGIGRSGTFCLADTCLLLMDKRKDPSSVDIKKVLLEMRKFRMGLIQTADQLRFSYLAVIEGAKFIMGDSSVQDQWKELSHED
Method: For example, the PTP-1B inhibitory activity in vitro may be determined as follows:
Assessment of human PTP-1B (hPTP-1B) activity in the presence of various agents is determined by measuring the amount of inorganic phosphate released from a phosphopeptide substrate using a 96-well microtiter plate format. The assay (100 μL) is performed in an assay buffer comprised of 50 mM TRIS (pH 7.5), 50 mM NaCl, 3 mM DTT at ambient temperature. The assay is typically performed in the presence of 0.4% dimethyl sulfoxide (DMSO). However, concentrations as high as 10% are used with certain poorly soluble compounds. […] Inorganic phosphate, a product of the enzyme reaction, is quantitiated after 15 min as the green color resulting from complexing with the Malichite reagent and is determined as an A620 using a Molecular Devices (Sunnyvale, Calif.) SpectraMAX Plus spectrophotometer. […] Activity is defined as the net change in absorbance resulting from the activity of the uninhibited hPTP-1B[1-411] minus that of a tube with acid-inactivated hPTP-1B[1-411]. […]
Alternatively, the assessment of human PTP-1B activity in the presence of various agents may be determined by measuring the hydrolysis products of known competing substrates. […]

| melting point | IC50 (human PTP-1B) | Compound |
| --- | --- | --- |
| 153 to 157 °C | – | O=C1CN(c2cc(Oc3ccccc3)ccc2O)S(=O)(=O)N1 [Example 14, 5-(2-Hydroxy-5-phenoxyphenyl)-1,1-dioxo-1,2,5-thiadiazolidin-3-one] |
| – | 80 nM | O=C1CN(c2cc(-c3cn[nH]c3)ccc2O)S(=O)(=O)N1 [Example No. 2-5, 5-[2-Hydroxy-5-(1H-pyrazol-4-yl)-phenyl]-1,1-dioxo-1,2,5-thiadiazolidin-3-one] |
| – | 86 nM | N#CCCCn1cc(-c2ccc(O)c(N3CC(=O)NS3(=O)=O)c2)cn1 [Example No. 13-7, 4-{4-[4-Hydroxy-3-(1,1,4-trioxo-1,2,5-thiadiazolidin-2-yl)-phenyl]-1H-pyrazol-1-yl}-butyronitrile] |
